Test results: patent US7267964B2, “DNA molecules encoding ligand gated ion channels from Dermacentor variabilis” (priority 2000, dated 2007)

Experiments:
Format in all cases: cell-based, Dermacentor variabilis
[1] = tested on: DvLGIC/GluCl 1; experiment: Two-microelectrode voltage clamp of Xenopus oocytes injected with DvLGIC/GluCl 1 RNA
Text: (§1) Synthesis of in vitro transcribed capped RNA—A PCR strategy was used to add the T7 promoter upstream of the initiating methionine (ATG) and a polyA^+ tail following the stop codon (TAG) of the open reading frame (ORF) of clones DvLGIC/GluCl1, DvLGIC/GluCl 11, DvLGIC/GluCl 7-1 and DvLGIC/GluCl 10-2. Amplified ORFs which contained the flanking T7 promoter and polyA^+ tail were used directly as templates in the in vitro transcription reaction (mMessage mMachine™, Ambion, Austin, Tex.). After removal of DNA template, the volume was adjusted to 100 μl with nuclease free water, and RNA purified using a G-50 Sephadex Column (Boehringer Mannheim, Indianapolis, Ind.). The elutate was extracted with an equal volume of phenol/chloroform, followed with a second chloroform extraction, precipitated with isopropyl alcohol, and resuspended in nuclease-free water to a storage concentration of 1 μg/μl.
(§2) Xenopus laevis oocytes were prepared and injected using standard methods previously described [Arena, J. P., Liu, K. K., Paress, P. S. & Cully, D. F. Mol. Pharmacol. 40, 368-374 (1991); Arena, J. P., Liu, K. K., Paress, P. S., Schaeffer, J. M. & Cully, D. F., Mol. Brain Res. 15, 339-348 (1992)]. Adult female Xenopus laevis were anesthetized with 0.17% tricaine methanesulfonate and the ovaries were surgically removed and placed in a solution consisting of (mM): NaCl 82.5, KCl 2, MgCl2 1, HEPES 5, NaPyruvate 2.5, Penicillin G. 100,000 units/L, Streptomycin Sulfate 1000 mg/L, pH 7.5 (Mod. OR-2). Ovarian lobes were broken open, rinsed several times in Mod. OR-2, and incubated in 0.2% collagenase (Sigma, Type1) in Mod. OR-2 at room temperature with gentle shaking. After 1 hour the collagenase solution was renewed and the oocytes were incubated for an additional 30-90 min until approximately 50% of the oocytes were released from the ovaries. Stage V and VI oocytes were selected and placed in media containing (mM): NaCl 96, KCl 2, MgCl2 1, CaCl2 1.8, HEPES 5, NaPyruvate 2.5, theophylline 0.5, gentamicin […], pH 7.5 (ND-96) for 16-24 hours before injection. Oocytes were injected with 50 nl of DvLGIC/GluCl1 or DvLGIC/GluCl 7-1 RNA at a concentration of 0.2 mg/ml. Oocytes were incubated at 18° C. for 1-6 days in ND-96 before recording.
(§3) Recordings were made at room temperature in modified ND-96 consisting of (mM): NaCl 96, MgCl2 1, CaCl2 0.1, BaCl2 3.5, HEPES 5, pH 7.5. Oocytes were voltage clamped using a Dagan CA1 two microelectrode amplifier (Dagan Corporation, Minneapolis, Minn.) interfaced to a Macintosh 7100/80 computer. The current passing electrode was filled with 0.7 M KCl, 1.7 M KCitrate, and the voltage recording electrode was filled with 1 M KCl. Throughout the experiment oocytes were superfused with modified ND-96 (control solution) or with ND-96 containing potential channel activators and blockers at a rate of approximately 3 ml/min. Data were acquired at 100 Hz and filtered at 33.3 Hz using Pulse software from HEKA Elektronik (Lambrecht, Germany). All recordings were performed from a holding potential of either 0 or −30 mV.

[2] = tested on: DvLGIC/GluCl 7-1; experiment: Two-microelectrode voltage clamp of Xenopus oocytes injected with DvLGIC/GluCl 7-1 RNA
Text: as §1, §2, §3

[3] = tested on: DvLGIC/GluCl 10-2; experiment: DvLGIC/GluCl 10-2 expressed in Xenopus oocytes, current response; conditions: concentration not given
Text: as §1
(§4) Xenopus laevis oocytes were prepared and injected using standard methods previously described [Arena, J. P., Liu, K. K., Paress, P. S. & Cully, D. F. Mol. Pharmacol. 40, 368-374 (1991); Arena, J. P., Liu, K. K., Paress, P. S., Schaeffer, J. M. & Cully, D. F., Mol. Brain Res. 15, 339-348 (1992)]. […]

[4] = tested on: DvLGIC/GluCl 11; experiment: DvLGIC/GluCl 11 expressed in Xenopus oocytes, current response; conditions: concentration not given
Text: as §1, §4

[5] = 1 μM ivermectin phosphate, holding potential 0 or −30 mV
[6] = Xenopus oocytes, concentration not given
[7] = after 1 μM ivermectin phosphate

Chain of DvLGIC/GluCl 11 (as listed by the source): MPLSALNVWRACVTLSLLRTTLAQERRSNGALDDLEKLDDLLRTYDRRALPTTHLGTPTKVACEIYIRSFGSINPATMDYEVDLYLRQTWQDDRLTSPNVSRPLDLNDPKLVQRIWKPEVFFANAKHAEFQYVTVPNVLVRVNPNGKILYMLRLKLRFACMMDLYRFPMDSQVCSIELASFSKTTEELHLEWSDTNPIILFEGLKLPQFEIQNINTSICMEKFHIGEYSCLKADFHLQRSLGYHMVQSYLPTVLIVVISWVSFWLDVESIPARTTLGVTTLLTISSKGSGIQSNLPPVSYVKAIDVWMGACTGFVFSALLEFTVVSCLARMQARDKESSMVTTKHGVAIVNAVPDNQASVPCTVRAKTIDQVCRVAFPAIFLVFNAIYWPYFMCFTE

Row | Compound | current in response to application ([1]; 1 mM glutamate) | current in response to application ([2]; 1 mM glutamate) | responsiveness of the channel to the substance [3] | current in response to application [1, 5] | concentration at which current activation was maximal ([1]; Xenopus oocytes injected with DvLGIC/GluCl 1 mRNA, FIG. 9) | current in response to addition [1, 6] | reversibility of current upon wash-out [1, 7] | current in response to application [2, 5] | concentration at which current activation was maximal ([2]; DvLGIC/GluCl 7-1 expressed in Xenopus oocytes, FIG. 10) | current in response to addition [2, 6] | reversibility of current upon wash-out [2, 7] | current in response to addition [4]
1 | N[C@@H](CCC(=O)O)C(=O)O [glutamate] | did not activate a current | did not activate a current | not responsive |  |  |  |  |  |  |  |  | 
2 | ivermectin phosphate |  |  | not responsive | slowly activating current | 1 µM | exhibit a current | irreversible | slowly activating current | ~1 µM | exhibit a current | irreversible | exhibit a current
